Reference: patent US4473577A, “2-Thiazolamine derivatives, process for preparing same, and pharmaceutical compositions comprising same” (Mitsui Toatsu Chemicals, Incorporated, priority 1982, dated 1984)
Where a name gives a salt, the structure may show the parent alone. Read-outs that look alike come from different tables or passages of the source.

Assays:
[1] = test system: delayed hypersensitivity induced in mice by picryl chloride; assay: Augmentation test of delayed hypersensitivity (picryl chloride, ear thickness); assay type: in vivo, male mice of the ICR strain; conditions: mouse ICR, 50 mg per kg orally, simultaneously with sensitization; ear thickness before and 24 hours after challenge (7 days after sensitization); average of 16 measurements; * = P<0.05 vs control
Source text: L., and Ptak, W. "Contact and delayed hypersensitivity in the mouse I. Active sensitization and passive transfer," Immunology, 15, 405-416(1968)). In the following Evaluation Test 1, this experimental system was used to carry out an augmentation test of delayed hypersensitivity. Male mice of the ICR strain, weighing approximately 30 g, were used in groups of eight. These animals were sensitized by shaving the hair on the abdomen and applying thereto a 3% solution of picryl chloride in a 4:1 mixture of olive oil and acetone. Simultaneously with this sensitization, each of three compounds of the present invention was dissolved or suspended in physiological saline containing 0.2% carboxymethyl cellulose and administered orally to the animals in a dose of 50 mg per kg of body weight. A control group was treated solely with physiological saline containing 0.2% carboxymethyl cellulose. Seven days after sensitization, the animals were challenged by wrapping the tips of a forceps with pieces of felt, impregnating the felt with olive oil containing 1% picryl chloride, and pinching both ears of each animal. The thicknesses of the ears were measured before and 24 hours after the challenge, and the calculated present increase of ear thickness (the average of 16 measurements made of the ears of 8 animals) is shown in Table 1. […] The test results thus obtained were subjected to statistical analysis using the F.t test. The values marked with an asterisk (*) indicate that, when they were compared with the value of the control, the differences were significant at P<0.05.

[2] = Test for acute oral toxicity; parameters: species or system male mice of the ddY strain; conditions: mouse, in vivo, male ddY mice, 7 days observation, estimated
Procedure: Each of the three compounds used in Evaluation Tests 1 and 2 was dissolved or suspended in physiological saline and administered orally to a group of 5 male mice of the ddY strain. The LD50 value of the compound was estimated by observing these animals for 7 days after administration.

[3] = test system: adjuvant arthritis induced in rats by injection of a tubercle bacillus adjuvant; assay type: in vivo, male rats of the SD strain
[4] = rat SD, 5 mg per kg subcutaneously, nine times before and after adjuvant, left hind paw volume, * = P<0.05 vs control

| Structure (SMILES) | Percent increase of ear thickness [1] [%] | LD50 at 168 h [2] [mg/kg] | Percent inhibition of swelling as compared with control group (average of 16-20 days) ([3]; rat, in vivo, sc) [%] | Percent inhibition of swelling as compared with control group (average of 16-20 days) [3, 4] [%] |
| --- | --- | --- | --- | --- |
| c1ccc([C@H]2CN3CCSC3=N2)cc1 [Levamisole hydrochloride, reference compound] | 31.2 | 200 to 300 | 19.8 |  |
| CO/N=C(\C(=O)OC)c1csc(NC(=O)OCC(Cl)(Cl)Cl)n1 [drawing 8] | 33.4 |  |  |  |
| CCC(=O)Nc1nc(/C(=N/OC)C(=O)OC)cs1 [drawing 10] | 35.2 |  |  |  |
| CO/N=C(\C(=O)OC)c1csc(NC(=O)OCC(Cl)(Cl)Cl)n1 [drawing 11] |  |  |  | 39.5 |
| CCC(=O)Nc1nc(/C(=N/OC)C(=O)OC)cs1 [drawing 13] |  |  |  | 22.3 |
